Test results from PubChem BioAssay (NCI).
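Values below derive from 48-hour exposures of cells grown in 96-well plates, with endpoints linearly interpolated between the two concentrations bracketing the appropriate inhibition level. TGI denotes the concentration required for complete inhibition of growth.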

Columns and labels:
Assay in all cases: inhibition of tumour cell growth, NCI panel, 48 h
[1] = tested on: M14 melanoma
[2] = tested on: NCI-H23 lung
[3] = tested on: OVCAR-5 ovarian
[4] = tested on: MOLT-4 leukemia
[5] = tested on: CCRF-CEM leukemia
[6] = tested on: SF-268 CNS
[7] = tested on: NCI-H460 lung
[8] = tested on: HOP-62 NSCLC
[9] = tested on: UACC-257 melanoma
[10] = tested on: SW-620 colon
[11] = tested on: LXFL 529 NSCLC
[12] = tested on: MALME-3M melanoma
[13] = tested on: A498 renal
[14] = tested on: HOP-92 NSCLC
[15] = tested on: A549 NSCLC
[16] = tested on: COLO 205 colon
[17] = tested on: SK-MEL-2 melanoma
[18] = tested on: HL-60(TB) leukemia
[19] = tested on: XF 498 CNS
[20] = tested on: OVCAR-3 ovarian
[21] = tested on: SNB-19 CNS
[22] = tested on: ACHN renal
[23] = tested on: SNB-75 CNS
[24] = tested on: SK-MEL-28 melanoma
[25] = tested on: RPMI-8226 leukemia
[26] = tested on: M19-MEL melanoma
[27] = tested on: HT29 colon
[28] = tested on: KM12 colon
[29] = tested on: U251 CNS
[30] = tested on: NCI-H522 lung
[31] = tested on: SR leukemia
[32] = tested on: SNB-78 CNS
[33] = tested on: UACC-62 melanoma
[34] = tested on: K-562 leukemia
[35] = tested on: OVCAR-4 ovarian
[36] = tested on: SN12C renal
[37] = tested on: UO-31 renal
[38] = tested on: SK-OV-3 ovarian
[39] = tested on: HCC-2998 colon
[40] = tested on: DLD-1 colon
[41] = tested on: TK-10 renal
[42] = tested on: NCI-H226 lung
[43] = tested on: CAKI-1 renal
[44] = tested on: KM20L2 colon
[45] = tested on: EKVX NSCLC
[46] = tested on: SF-295 CNS
[47] = tested on: 786-0 renal
[48] = tested on: HCT-116 colon
[49] = tested on: OVCAR-8 ovarian

Measured: TGI

COc1cc(Br)c(CC2NCCc3cc(OC)c(OC)cc32)cc1OC (centres undefined)
> 100 µM: all assays above
